This is an account of results in patent US10626094B2 (La Jolla Institute of Allergy & Immunology, priority 2014, dated 2020).

The target of data set [1] is LMPTP-A (Low Molecular Weight Protein Tyrosine Phosphatase-A) enzyme (Homo sapiens (Human), UniProt P24666). As to the kind of experiment: LMPTP primary screening / LMPTP (OMFP) enzyme inhibition assay, fluorescence intensity. The data set is classed as biochemical. The method, boiled down: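 Single-concentration screen, test compounds 20 μM final, […]. Enzyme (0.625 nM) and OMFP (400 μM) react 50 min at room temp, dark, in Bis-Tris buffer pH 6.0 containing DTT 1 mM and Triton X-100 0.01%. Read-out: fluorescence intensity.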

In data set [2] the target is recombinant human LMPTP-A (Homo sapiens (Human), UniProt P24666). Put plainly: isothermal calorimetry (ITC) binding. As for the experimental part: ML400 analog G53 (Table A) binds to LMPTP. ITC was performed using recombinant human LMPTP-A and a derivative of Compound D1, G53. Kd=0.9 microM.
Data set [3] in a line: aqueous solubility (buffer pH 5.0-7.4, PBS). The data set is classed as physicochemical.
Data set [4] can be described thus: plasma stability, human plasma. The data set is classed as in vitro ADME. The settings on record: Human plasma, 3 hrs. The text has this: (§1) Plasma stability is a measure of the stability of small molecules and peptides in plasma and is an important parameter, which can strongly influence the in vivo efficacy of a test compound. Drug candidates are exposed to enzymatic processes (proteinases. esterases) in plasma, and they can undergo intramolecular rearrangement or bind irreversibly (covalently) to proteins.

A short description of data set [5]: plasma stability, mouse plasma. The data set is classed as in vitro ADME. The settings on record: Mouse plasma, 3 hrs.
Source text: as §1

A short description of data set [6]: hepatic microsomal stability, human liver microsomes. The data set is classed as in vitro ADME. The settings on record: Human microsomes, 1 hr. An excerpt:
(§2) In the course of this investigation many compounds with similar potencies in the LMPTP (OMFP) assay were found. In order to determine which compound would be the best candidate for in vivo studies, an abbreviated ADME panel was ran on these compounds, a tabulation of the most interesting data on this set of compounds is illustrated in Table 3 below. From the hepatic microsome stability data the candidate selected for in vivo studies was Compound D1.
(§3) The microsomal stability assay is commonly used to rank compounds according to their metabolic stability. This assay addresses the pharmacologic question of how long the parent compound will remain circulating in plasma within the body.

Data set [7] can be described thus: hepatic microsomal stability, mouse liver microsomes. The data set is classed as in vitro ADME. The settings on record: Mouse microsomes, 1 hr.
Source text: as §2, §3

The subject of data set [8] is insulin receptor in HepG2 cells. The settings on record: 10 microM compound overnight, insulin 5 min.
The mark [9] stands for this setting: LMPTP-A, OMFP substrate, method of Example 2, read-out: IC50.

Read-outs that look alike come from different tables or passages of the source.

LMPTP-A (Low Molecular Weight Protein Tyrosine Phosphatase-A) enzyme, sequence (P24666 whole entry): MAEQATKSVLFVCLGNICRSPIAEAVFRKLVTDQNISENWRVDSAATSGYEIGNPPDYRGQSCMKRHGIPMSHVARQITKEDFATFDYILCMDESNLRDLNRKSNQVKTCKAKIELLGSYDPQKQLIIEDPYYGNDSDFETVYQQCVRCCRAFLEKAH
recombinant human LMPTP-A, sequence (P24666 whole entry): as above

Consider `COc1ccc(-c2cc(Nc3cccc(CC4CCNCC4)c3)c3ccccc3n2)cc1` [Compound G53, [2-(4-methoxyphenyl)(4-quinolyl)][3-(4-piperidylmethyl)phenyl]amine], for which, in data set [1] (setting [9]), the IC50 fell in the range of 0.801 to 5 µM. For the same compound, the Kd in data set [2] was 0.9 µM.
For `c1ccc(-c2cc(NCCN3CCCCC3)c3ccccc3n2)cc1` [Entry 41], the IC50 in data set [1] (Table 2 quinoline series, CP sample (cherry pick of DMSO solution from NIH MLSMR), read-out: LMPTP (OMFP) (IC50)) amounted to 3.49 µM; in data set [1] (Table 2 quinoline series, P sample (purchased from commercial sources), read-out: LMPTP (OMFP) (IC50)) it was 2.86 µM; in data set [1] (Table 2 quinoline series, S sample (synthesized de novo), read-out: LMPTP (OMFP) (IC50)), 3.7 µM; in data set [1] (initial screening hits (Scheme 4), read-out: IC50), 3.49 µM; in data set [1] (purchased compound, read-out: LMPTP (OMFP) IC50), 2.86 µM; in data set [1] (synthesized compound, read-out: LMPTP (OMFP) IC50), 3.7 µM. In addition, the figures for the “Aqueous Solubility Pion's buffer” value in data set [3] (pH 5.0), in data set [3] (pH 6.2) and in data set [3] (pH 7.4) were 111.8 µg/mL, 95.7 µg/mL and 54.5 µg/mL, respectively. Also, the entries for the “Plasma Stability % Remaining @ 3 hrs” value in data set [4] and in data set [5] were 70.08% and 62.25%, respectively. The “Hepatic Microsome Stability % Remaining @ 1 hr” value in data set [6] is 26.54%; in data set [7] it was 0.38%. For the same compound, the “phosphorylation of the insulin receptor” value in data set [8] is “increases phosphorylation of the insulin receptor”.
Consider “[2-(4-methoxyphenyl)(4-5,6,7,8-tetrahydroquinolyl)][4-(piperidylmethyl)phenyl]amine [Compound I207]”, for which the IC50 in data set [1] (setting [9]) was 0.801 to 5 µM.
For the compound “[2-(5-bromo-2-methoxy(4-pyridyl))(4-quinolyl)](3-piperidylpropyl)amine [Compound I89]”, the IC50 in data set [1] (setting [9]) fell in the range of 0.801 to 5 µM.
Turning to “[2-(5-bromo-3-chloro-2-fluorophenyl)(4-quinolyl)](3-piperidylpropyl)amine [Compound I239]”, the IC50 in data set [1] (setting [9]) is 0.801 to 5 µM.
As for “methyl 3-{4-[(3-piperidylpropyl)amino]-2-quinolyl}benzoate [Compound I155]”, the IC50 in data set [1] (setting [9]) was 0.801 to 5 µM.
Take “{2-[2,4-bis(trifluoromethyl)phenyl](4-quinolyl)}(3-piperidylpropyl)amine [Compound I168]”: the IC50 in data set [1] (setting [9]) lay in the range of 0.2 to 0.8 µM.
For the compound “{2-[3-chloro-2-(phenylmethoxy)(4-pyridyl)](4-quinolyl)}(3-piperidylpropyl)amine [Compound I88]”, the IC50 in data set [1] (setting [9]) lay within 0.801 to 5 µM.
In the case of “{2-[5-chloro-2-(cyclopropylmethoxy)(3-pyridyl)](4-quinolyl)}(3-piperidylpropyl)amine [Compound I95]”, the IC50 in data set [1] (setting [9]) was 0.801 to 5 µM.
